This assay has as its system BDF1 mice, B16 melanoma ip, median survival T/C. Nature of the assay: NCI In Vivo Anticancer Drug Screen. Data for tumor model B16 Melanoma (intraperitoneal) in B6D2F1 (BDF1) mice. The conditions noted are these: endpoint: median survival time, higher = longer survival. Put shortly:
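Tumor-bearing mice received test compound or vehicle. Survival or tumor size was then measured in both groups. The treated-group figure was divided by the control-group figure.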

Where [1] appears, read: dose: 6.25 mg/kg/injection, schedule: Q01DX009 (ip), vehicle: Klucel (hydroxypropylcellulose) (HPC).
The mark [2] stands for this setting: dose: 12.5 mg/kg/injection, schedule: Q01DX009 (ip), vehicle: Klucel (hydroxypropylcellulose) (HPC).
The mark [3] stands for this setting: dose: 25.0 mg/kg/injection, schedule: Q01DX009 (ip), vehicle: Klucel (hydroxypropylcellulose) (HPC).
Setting [4] is: dose: 100.0 mg/kg/injection, schedule: Q01DX009 (ip), vehicle: Klucel (hydroxypropylcellulose) (HPC).
Where [5] appears, read: dose: 6.25 mg/kg/injection, schedule: Q01DX009 (ip), vehicle: saline with Tween-80.
[6] abbreviates: dose: 12.5 mg/kg/injection, schedule: Q01DX009 (ip), vehicle: saline with Tween-80.
Where [7] appears, read: dose: 12.5 mg/kg/injection, schedule: Q04DX003 (ip), vehicle: saline with Tween-80.
The mark [8] stands for this setting: dose: 25.0 mg/kg/injection, schedule: Q01DX009 (ip), vehicle: saline with Tween-80.
Setting [9] is: dose: 25.0 mg/kg/injection, schedule: Q04DX003 (ip), vehicle: saline with Tween-80.
Where [10] appears, read: dose: 50.0 mg/kg/injection, schedule: Q01DX009 (ip), vehicle: saline with Tween-80.
The mark [11] stands for this setting: dose: 50.0 mg/kg/injection, schedule: Q04DX003 (ip), vehicle: saline with Tween-80.
[12] abbreviates: dose: 50.0 mg/kg/injection, schedule: Q01DX009 (ip), vehicle: Klucel (hydroxypropylcellulose) (HPC).
Where [13] appears, read: dose: 50.0 mg/kg/injection, schedule: Q01DX009 (ip), vehicle: saline.
[14] abbreviates: dose: 100.0 mg/kg/injection, schedule: Q01DX009 (ip), vehicle: saline.
The mark [15] stands for this setting: dose: 100.0 mg/kg/injection, schedule: Q04DX003 (ip), vehicle: saline with Tween-80.
Setting [16] is: dose: 25.0 mg/kg/injection, schedule: Q01DX009 (ip), vehicle: saline.
[17] abbreviates: dose: 100.0 mg/kg/injection, schedule: Q01DX009 (ip), vehicle: saline with Tween-80.
Setting [18] is: dose: 200.0 mg/kg/injection, schedule: Q01DX009 (ip), vehicle: saline with Tween-80.
[19] abbreviates: dose: 400.0 mg/kg/injection, schedule: Q01DX009 (ip), vehicle: saline with Tween-80.
Setting [20] is: dose: 200.0 mg/kg/injection, schedule: Q01DX009 (ip), vehicle: Klucel (hydroxypropylcellulose) (HPC).

The source of these data is PubChem BioAssay AID192 (DTP/NCI, 2004).

Where “and” joins values, the source holds several entries; their conditions need not be identical. Equal values may be shown once. Toxic doses and inconclusive results are not listed. Peptide text beside a SMILES is read from it. * marks the point of attachment. Boc = CC(C)(C)OC(=O)*; NHNH2 = NN*

Turning to `COC(=O)C1C(O)C(C)C(O)C(C)C=C(C)C2=C3C(=C(C)C(=O)c4c(O)c(c(C)c(OC(C)=O)c43)NC(=O)C(C)=C/C=C\C(C)C(O)C(C)C1O)OCO2` (stereo not given), the T/C runs as follows: under setting [1], 97 % of control; under setting [2], 94 % of control; under setting [3], 88 % of control; (dose: 25.0 mg/kg/injection, schedule: Q01DX009 (ip), vehicle: carboxymethylcellulose (CMC)) 112 % of control; (dose: 50.0 mg/kg/injection, schedule: Q01DX009 (ip), vehicle: carboxymethylcellulose (CMC)) 112 % of control; under setting [4], 89 % of control.
Regarding `Cc1ccc[c]([Hg][Cl])c1N=Nc1ccccc1`, the T/C reads like this: (dose: 0.39 mg/kg/injection, schedule: Q01DX009 (ip), vehicle: saline with Tween-80) 101 % of control; (dose: 0.78 mg/kg/injection, schedule: Q01DX009 (ip), vehicle: saline with Tween-80) 100 % of control; (dose: 1.56 mg/kg/injection, schedule: Q01DX009 (ip), vehicle: saline with Tween-80) 97 % of control; (dose: 3.12 mg/kg/injection, schedule: Q01DX009 (ip), vehicle: saline with Tween-80) 97 % of control; under setting [5], 94 % of control.
As for `Cc1nc2[nH]c(=O)[nH]c(=O)c2[nH]1`, the T/C under setting [6] was 111 % of control; the T/C under setting [7] is 105 % of control; the T/C under setting [8] was 100 % of control; the T/C under setting [9] is 108 % of control; the T/C under setting [10] is 102 % of control; the T/C under setting [11] is 105 % of control.
With `CCCCCCCCCCCC(=O)Nc1ccccc1`, the T/C under setting [2] was 105 % of control, the T/C under setting [3] was 90 % of control and the T/C under setting [12] is 92 % of control.
In the case of `C/C=C\C#N`, the T/C is 107 % of control under setting [13] and 107 % of control under setting [14].
Consider `O=C(O)CCC(=O)Nc1ccccc1C(F)(F)F`, for which the T/C was 108 % of control under setting [7]; 111 % of control under setting [9]; 113 % of control under setting [11]; 108 % of control under setting [15]; 105 % of control (dose: 200.0 mg/kg/injection, schedule: Q04DX003 (ip), vehicle: saline with Tween-80).
In the case of `ClCCCN1CCCCC1CCl` (stereo not given), the T/C runs as follows: (dose: 3.12 mg/kg/injection, schedule: Q01DX009 (ip), vehicle: saline) 111 % of control; (dose: 3.12 mg/kg/injection, schedule: Q04DX003 (ip), vehicle: saline) 105 % of control; (dose: 6.25 mg/kg/injection, schedule: Q04DX003 (ip), vehicle: saline) 116 % of control; (dose: 8.33 mg/kg/injection, schedule: Q01DX009 (ip), vehicle: water) 155 % of control and 159 % of control; (dose: 12.5 mg/kg/injection, schedule: Q01DX009 (ip), vehicle: saline) 176 % of control; (dose: 12.5 mg/kg/injection, schedule: Q01DX009 (ip), vehicle: water) 185 % of control and 192 % of control.
For the molecule `COc1cccc(NC(=O)Nc2ccccc2Cl)c1`, the T/C was 96 % of control (dose: 100.0 mg/kg/injection, schedule: Q01DX009 (ip), vehicle: gum acacia); 96 % of control (dose: 200.0 mg/kg/injection, schedule: Q01DX009 (ip), vehicle: gum acacia); 88 % of control (dose: 400.0 mg/kg/injection, schedule: Q01DX009 (ip), vehicle: gum acacia).
As to `CCCCCCCCCCCCCCCCCCOC(=O)Cc1ccc(N(CCCl)CCCl)cc1`, the T/C by setting is: (dose: 180.0 mg/kg/injection, schedule: Q04DX003 (ip), vehicle: saline with Tween-80) 102 % of control; (dose: 266.0 mg/kg/injection, schedule: Q04DX003 (ip), vehicle: saline with Tween-80) 107 % of control.
As for `CCCCCCCC(=O)N/N=C(\CO)[C@]1(O)Cc2c(O)c3c(c(O)c2[C@@H](OC2CC(N)C(O)C(C)O2)C1)C(=O)c1c(OC)cccc1C3=O` (stereo not given in full), the T/C was 168 % of control (dose: 3.13 mg/kg/injection, schedule: Q01DX001 (ip), vehicle: water); 157 % of control and 200 % of control (dose: 6.25 mg/kg/injection, schedule: Q01DX001 (ip), vehicle: water); 173 % of control and 212 % of control (dose: 12.5 mg/kg/injection, schedule: Q01DX001 (ip), vehicle: water); 174 % of control and 220 % of control and 231 % of control (dose: 25.0 mg/kg/injection, schedule: Q01DX001 (ip), vehicle: water); 91 % of control and 228 % of control and 236 % of control (dose: 50.0 mg/kg/injection, schedule: Q01DX001 (ip), vehicle: water).
In the case of `Cl/C=C(\Cl)CCl`, the T/C reads like this: under setting [5], 108 % of control; under setting [6], 90 % of control.
As to `C=C1C(=O)OC2/C=C(\C)CC/C=C(/C=O)C(OC)C(OC(=O)C(C)C)C12` (stereo not given), the T/C was 113 % of control under setting [1], 111 % of control under setting [2] and 104 % of control under setting [3].
Regarding `CC1(C)N=C(N)N=C(N)N1c1ccc(OCCCNC(=O)Nc2cccc(S(=O)(=O)F)c2)c(Cl)c1`, the T/C under setting [16] was 102 % of control and the T/C under setting [13] is 124 % of control.
`CC(=O)OC(CC(O)(C(F)(F)F)C(F)(F)F)C(C)(C)C` (stereo not given): the T/C by setting is: under setting [6], 120 % of control; under setting [7], 105 % of control; under setting [8], 117 % of control; under setting [9], 105 % of control; under setting [10], 97 % of control; under setting [11], 117 % of control.
For `NC(=O)NC1CCCCCC1`, the T/C is, setting by setting: under setting [17], 108 % of control; under setting [18], 104 % of control; under setting [19], 95 % of control.
As to `CC(C)(C)OC(=O)NC(CCCCNC(=O)C(F)(F)F)C(=O)ON1C(=O)CCC1=O` (stereo not given), the T/C under setting [9] is 114 % of control, the T/C under setting [11] was 115 % of control and the T/C under setting [15] was 90 % of control.
As for `N=N/C(=C\c1c(O)[nH]c2ccccc12)c1ccccc1`, the T/C is, setting by setting: under setting [10], 98 % of control; under setting [17], 105 % of control; under setting [18], 98 % of control; under setting [19], 89 % of control.
In the case of `CC(C)CC(NC(=O)C(Cc1c[nH]c2ccccc12)NC(=O)OC(C)(C)C)C(=O)NN` (stereo not drawn) (Boc-Trp-Leu-NHNH2; configuration not given here), the T/C runs as follows: under setting [16], 88 % of control; under setting [13], 98 % of control; under setting [14], 88 % of control; (dose: 200.0 mg/kg/injection, schedule: Q01DX009 (ip), vehicle: saline) 87 % of control.
As to `Nc1ccc(S(=O)(=O)c2ccc(NCNc3ccc(S(=O)(=O)c4ccc(N)cc4)cc3)cc2)cc1`, the T/C under setting [17] is 88 % of control, the T/C under setting [18] was 92 % of control and the T/C under setting [19] is 90 % of control.
Turning to `Cc1c(C(=O)O)cc2n(c1=O)Cc1cc3ccccc3nc1-2`, the T/C by setting is: (dose: 25.0 mg/kg/injection, schedule: Q04DX003 (ip), vehicle: Klucel (hydroxypropylcellulose) (HPC)) 102 % of control; (dose: 50.0 mg/kg/injection, schedule: Q04DX003 (ip), vehicle: Klucel (hydroxypropylcellulose) (HPC)) 94 % of control; (dose: 100.0 mg/kg/injection, schedule: Q04DX003 (ip), vehicle: Klucel (hydroxypropylcellulose) (HPC)) 89 % of control; under setting [15], 100 % of control.
As to `CC(=O)CC(=O)Nc1cccc(Cl)c1C`, the T/C runs as follows: under setting [12], 103 % of control; under setting [4], 96 % of control; under setting [20], 106 % of control.
For `C[C@]12CC[C@H]3C(=CCc4cc(O)ccc43)[C@@H]1C/C(=N\O)C2=O`, the T/C under setting [17] was 95 % of control, the T/C under setting [18] is 102 % of control and the T/C under setting [19] was 90 % of control.
As for `COc1cc2c(cc1OC)C13CCN4CC5=CCOC6CC(=O)N2C1C6C5CC43` (stereo not given) (tested in a mixture with another compound), the T/C runs as follows: under setting [3], 103 % of control; under setting [12], 91 % of control.
As to `Brc1cc(Br)c(-c2c(Br)cc(Br)cc2Br)c(Br)c1`, the T/C under setting [4] is 102 % of control and the T/C under setting [20] is 88 % of control.
Take `CC(C)C[C@H](NC(=O)[C@@H](O)[C@H](N)Cc1ccc(O)cc1)C(=O)O`: the T/C was 97 % of control (dose: 0.05 mg/kg/injection, schedule: Q01DX009 (oral), vehicle: saline); 97 % of control (dose: 0.5 mg/kg/injection, schedule: Q01DX009 (oral), vehicle: saline); 101 % of control (dose: 5.0 mg/kg/injection, schedule: Q01DX009 (oral), vehicle: saline).
